Laboratory results taken from PMC6849638 (2019).

Assays:
Assay in all cases: luminescence titration
Conditions in all cases: Na+ 100 mM; 20 mM Tris-HCl, pH 7.5, 298 K; apparent
[1] = test system: A2T2 (DNA, hairpin) GGCGAATTCAGCTTTTTGCTGAATTCGCC
[2] = test system: A2T3 (DNA, hairpin) GGCGAATTTCGCTTTTTGCGAAATTCGCC
[3] = test system: G2C3 (DNA, hairpin) GGCAGGCCCAGCTTTTTGCTGGGCCTGCC
[4] = test system: A3T3 (DNA, hairpin) GGCAAATTTCAGTTTTTCTGAAATTTGCC

KD [1] | KD [2] | KD [3] | KD [4] | SMILES
1.15 (0.13) μM | 0.62 (0.04) μM | 0.70 (0.05) μM | 0.47 (0.03) μM | N=C(N)c1ccc(NCc2ccnc(-c3cc(CNc4ccc(C(=N)N)cc4)ccn3)c2)cc1.[Ir+3].[c-]1ccccc1-c1ccccn1.[c-]1ccccc1-c1ccccn1 [Λ-4Ir]
0.27 (0.09) μM | 0.49 (0.03) μM | 1.44 (0.09) μM | 1.01 (0.12) μM | N=C(N)c1ccc(NCc2ccnc(-c3cc(CNc4ccc(C(=N)N)cc4)ccn3)c2)cc1.[Ir+3].[c-]1ccccc1-c1ccccn1.[c-]1ccccc1-c1ccccn1 [Δ-4Ir]
